Columns and labels:
[1] = target: T1, Human immunodeficiency virus type 1 integrase (Human immunodeficiency virus 1, UniProt Q7ZJM1)
[2] = target: T1, Human immunodeficiency virus type 1 integrase; experiment: Inhibitory effect on strand transfer of proximal DNA into host DNA in an extracellular HIV-1 integrase assay in experiment 2
[3] = target: T1, Human immunodeficiency virus type 1 integrase; experiment: Inhibitory effect on strand transfer of proximal DNA into host DNA in an extracellular HIV-1 integrase assay in experiment 1
[4] = target: T1, Human immunodeficiency virus type 1 integrase; remark: listed apart in the source
[5] = Inhibitory concentration by single cycle replication assay using envelope deficient HIV-1; assay type: functional, Homo sapiens
[6] = target: T1, Human immunodeficiency virus type 1 integrase; experiment: Inhibitory effect on 3'-processing(3'-P) of proximal DNA in an extracellular HIV-1 integrase assay in experiment 2
[7] = target: T1, Human immunodeficiency virus type 1 integrase; experiment: Inhibitory effect on 3'-processing(3'-P) of proximal DNA in an extracellular HIV-1 integrase assay in experiment 1

T1 sequence (Q7ZJM1 whole entry): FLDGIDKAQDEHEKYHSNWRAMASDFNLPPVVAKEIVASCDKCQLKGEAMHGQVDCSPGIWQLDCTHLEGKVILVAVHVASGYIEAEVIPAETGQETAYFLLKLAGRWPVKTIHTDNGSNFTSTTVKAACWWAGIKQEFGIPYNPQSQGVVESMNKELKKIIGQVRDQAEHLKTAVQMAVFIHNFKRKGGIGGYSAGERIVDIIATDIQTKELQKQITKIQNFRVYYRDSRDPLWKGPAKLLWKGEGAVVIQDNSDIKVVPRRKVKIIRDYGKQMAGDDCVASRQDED

SMILES	IC50 [1]	IC50 [4]	further results
O=C(O)C(=O)/C=C(\O)c1cccc(Br)c1	> 100 µM		IC50 [2]: 3 µM; IC50 [3]: 2 µM
COc1ccc(Cn2nnnc2C(=O)/C=C(\O)c2cc(OCc3ccccc3)cc(OCc3ccccc3)c2)cc1	> 100 µM	> 100 µM	
O=C(O)C(=O)/C=C(\O)c1c[nH]c2ccccc12	> 100 µM	1.43 µM	
O=C(O)C(=O)/C=C(\O)c1cccc(NC(=O)c2ccccc2)c1	> 100 µM	35 µM	
O=C(O)C(=O)/C=C(\O)c1ccnc2ccccc12	> 100 µM	> 100 µM	
O=C(O)C(=O)/C=C(\O)c1cccc(/C(O)=C/C(=O)C(=O)O)c1	7.8 µM	1.83 µM	
O=C(O)C(=O)/C=C(\O)c1c[nH]c2ccc(Cl)cc12		0.52 µM	
O=C(O)c1ccc2[nH]cc(C(=O)CC(=O)c3nnn[nH]3)c2c1	40 µM	40 µM	
O=C(CC(=O)c1c[nH]c2ccc(F)cc12)c1nnn[nH]1	79 µM	1.8 µM	
O=C(O)C(=O)/C=C(\O)c1cc(OCc2ccccc2)cc(OCc2ccccc2)c1	> 1000 µM	0.48 µM	IC50 [5]: 2.3 µM
COc1ccc(Cn2nnnc2C(=O)/C=C(\O)c2c[nH]c3ccc(Cl)cc23)cc1	> 100 µM	34 µM	
O=C(O)C(=O)/C=C(\O)c1ccc(Oc2ccccc2)cc1	> 100 µM		IC50 [2]: 15 µM; IC50 [3]: 7.8 µM
O=C(O)C(=O)/C=C(\O)c1ccc(/C(O)=C/C(=O)C(=O)O)cc1		1.28 µM	IC50 [6]: 7.5 µM; IC50 [7]: 7.2 µM
O=C(CC(=O)c1c[nH]c2ccccc12)c1nnn[nH]1	> 100 µM		IC50 [2]: 2 µM; IC50 [3]: 1.9 µM
O=C(O)C(=O)/C=C(\O)c1cccc(OCc2ccccc2)c1		0.35 µM	IC50 [5]: 0.6 µM; IC50 [6]: 100 µM
CCOC(=O)C(=O)/C=C(\O)c1c[nH]c2ccc(Cl)cc12	> 100 µM	6.9 µM	
COc1ccc(Cn2nnnc2C(=O)/C=C(\O)c2c[nH]c3ccccc23)cc1	> 100 µM	> 100 µM	
O=C(O)C(=O)/C=C(\O)c1cc(/C(O)=C/C(=O)C(=O)O)c2ccccc2n1	82 µM	6.5 µM	
COc1cc(Cn2nnnc2C(=O)/C=C(\O)c2c[nH]c3ccccc23)cc(OC)c1	> 100 µM	> 100 µM	
